Test results taken from ChEMBL document CHEMBL1201862, “PubChem BioAssay data set” (2004).
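Compound exposure: 48 hours, 5 concentrations, 96-well plates. Abbreviation: GI50, concentration required for 50% inhibition of growth.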 The source made the active and inactive calls. No stated cut-off is given here; in the data, active = GI50 up to about 1.1 µM and inactive = higher.

Tests used:
Experiment in all cases: NCI-60 cell line screen, 48 h
NCI-H23 = test system: NCI-H23
BT-549 = test system: BT-549
CAKI-1 = test system: CAKI-1
NCI-H460 = test system: NCI-H460
MOLT-4 = test system: MOLT-4
OVCAR-8 = test system: OVCAR-8
KM12 = test system: KM12
COLO 205 = test system: COLO 205
A549 = test system: A549
U-251 = test system: U-251
NCI-H226 = test system: NCI-H226
DU-145 = test system: DU-145
SNB-19 = test system: SNB-19
MDA-MB-231 = test system: MDA-MB-231
HCT-15 = test system: HCT-15
HOP-92 = test system: HOP-92
SF-539 = test system: SF-539
HOP-62 = test system: HOP-62
SN12C = test system: SN12C
Malme-3M = test system: Malme-3M
K562 = test system: K562
RPMI-8226 = test system: RPMI-8226
CCRF-CEM = test system: CCRF-CEM
RXF 393 = test system: RXF 393
SK-MEL-2 = test system: SK-MEL-2
HT-29 = test system: HT-29
UACC-257 = test system: UACC-257
UACC-62 = test system: UACC-62
SK-MEL-28 = test system: SK-MEL-28
MDA-N = test system: MDA-N
T47D = test system: T47D
EKVX = test system: EKVX
OVCAR-5 = test system: OVCAR-5
SR = test system: SR
SK-MEL-5 = test system: SK-MEL-5
UO-31 = test system: UO-31
OVCAR-3 = test system: OVCAR-3
HCC 2998 = test system: HCC 2998
SF-268 = test system: SF-268
HL-60 = test system: HL-60
MDA-MB-435 = test system: MDA-MB-435
MCF7 = test system: MCF7
ACHN = test system: ACHN
Hs-578T = test system: Hs-578T
SF-295 = test system: SF-295
SK-OV-3 = test system: SK-OV-3
OVCAR-4 = test system: OVCAR-4
A498 = test system: A498
NCI/ADR-RES = test system: NCI/ADR-RES
HCT-116 = test system: HCT-116
TK-10 = test system: TK-10
M14 = test system: M14
786-0 = test system: 786-0
IGROV-1 = test system: IGROV-1
NCI-H522 = test system: NCI-H522
LOX IMVI = test system: LOX IMVI
PC-3 = test system: PC-3
SNB-75 = test system: SNB-75
SW-620 = test system: SW-620

## O=C(/C=c1\oc(=O)/c(=C/C(=O)c2ccc(Cl)cc2)oc1=O)c1ccc(Cl)cc1
NCI-H23
  GI50: > 100 µM (inactive)
BT-549
  GI50: 10.4 µM (inactive)
CAKI-1
  GI50: > 100 µM (inactive)
NCI-H460
  GI50: > 100 µM (inactive)
MOLT-4
  GI50: 23.8 µM (inactive)
OVCAR-8
  GI50: > 100 µM (inactive)
KM12
  GI50: > 100 µM (inactive)
COLO 205
  GI50: > 100 µM (inactive)
A549
  GI50: > 100 µM (inactive)
U-251
  GI50: > 100 µM (inactive)
NCI-H226
  GI50: > 100 µM (inactive)
DU-145
  GI50: > 100 µM (inactive)
SNB-19
  GI50: > 100 µM (inactive)
MDA-MB-231
  GI50: > 100 µM (inactive)
HCT-15
  GI50: 98.2 µM
HOP-92
  GI50: 43.1 µM (inactive)
SF-539
  GI50: > 100 µM (inactive)
HOP-62
  GI50: > 100 µM (inactive)
SN12C
  GI50: > 100 µM (inactive)
Malme-3M
  GI50: 51.3 µM (inactive)
K562
  GI50: > 100 µM (inactive)
RPMI-8226
  GI50: > 100 µM (inactive)
CCRF-CEM
  GI50: 39.4 µM (inactive)
RXF 393
  GI50: 60.7 µM (inactive)
SK-MEL-2
  GI50: > 100 µM (inactive)
HT-29
  GI50: > 100 µM (inactive)
UACC-257
  GI50: > 100 µM (inactive)
UACC-62
  GI50: > 100 µM (inactive)
SK-MEL-28
  GI50: > 100 µM (inactive)
MDA-N
  GI50: > 100 µM (inactive)
T47D
  GI50: 53.7 µM (inactive)
EKVX
  GI50: > 100 µM (inactive)
OVCAR-5
  GI50: > 100 µM (inactive)
SR
  GI50: 52.6 µM (inactive)
SK-MEL-5
  GI50: > 100 µM (inactive)
UO-31
  GI50: > 100 µM (inactive)
OVCAR-3
  GI50: 49.9 µM (inactive)
HCC 2998
  GI50: > 100 µM (inactive)
SF-268
  GI50: 97.3 µM (inactive)
HL-60
  GI50: > 100 µM (inactive)
MDA-MB-435
  GI50: > 100 µM (inactive)
MCF7
  GI50: > 100 µM (inactive)
ACHN
  GI50: > 100 µM (inactive)
Hs-578T
  GI50: 34.2 µM (inactive)
SF-295
  GI50: > 100 µM (inactive)
SK-OV-3
  GI50: > 100 µM (inactive)
OVCAR-4
  GI50: 39.6 µM (inactive)
A498
  GI50: > 100 µM (inactive)
NCI/ADR-RES
  GI50: > 100 µM (inactive)
HCT-116
  GI50: > 100 µM (inactive)
TK-10
  GI50: > 100 µM (inactive)
M14
  GI50: > 100 µM (inactive)
786-0
  GI50: > 100 µM (inactive)
IGROV-1
  GI50: 63.4 µM (inactive)
NCI-H522
  GI50: 19.7 µM (inactive)
LOX IMVI
  GI50: 48.4 µM (inactive)
PC-3
  GI50: > 100 µM (inactive)

## COP(=O)(OC)/C(=C/c1c[nH]c2ccccc12)C(=O)O
NCI-H23
  GI50: > 100 µM (inactive)
BT-549
  GI50: > 100 µM (inactive)
CAKI-1
  GI50: > 100 µM (inactive)
NCI-H460
  GI50: > 100 µM (inactive)
MOLT-4
  GI50: > 100 µM (inactive)
OVCAR-8
  GI50: > 100 µM (inactive)
KM12
  GI50: > 100 µM (inactive)
COLO 205
  GI50: > 100 µM (inactive)
A549
  GI50: > 100 µM (inactive)
U-251
  GI50: > 100 µM (inactive)
NCI-H226
  GI50: > 100 µM (inactive)
DU-145
  GI50: > 100 µM (inactive)
SNB-19
  GI50: > 100 µM (inactive)
MDA-MB-231
  GI50: > 100 µM (inactive)
HCT-15
  GI50: > 100 µM
HOP-92
  GI50: > 100 µM (inactive)
SF-539
  GI50: > 100 µM (inactive)
HOP-62
  GI50: > 100 µM (inactive)
SN12C
  GI50: > 100 µM (inactive)
Malme-3M
  GI50: > 100 µM (inactive)
K562
  GI50: > 100 µM (inactive)
RPMI-8226
  GI50: > 100 µM (inactive)
CCRF-CEM
  GI50: > 100 µM (inactive)
SNB-75
  GI50: > 100 µM (inactive)
RXF 393
  GI50: > 100 µM (inactive)
SK-MEL-2
  GI50: > 100 µM (inactive)
HT-29
  GI50: > 100 µM (inactive)
UACC-62
  GI50: > 100 µM (inactive)
SK-MEL-28
  GI50: > 100 µM (inactive)
MDA-N
  GI50: > 100 µM (inactive)
T47D
  GI50: > 100 µM (inactive)
EKVX
  GI50: > 100 µM (inactive)
OVCAR-5
  GI50: > 100 µM (inactive)
SR
  GI50: > 100 µM (inactive)
SK-MEL-5
  GI50: > 100 µM (inactive)
UO-31
  GI50: > 100 µM (inactive)
OVCAR-3
  GI50: > 100 µM (inactive)
HCC 2998
  GI50: > 100 µM (inactive)
HL-60
  GI50: > 100 µM (inactive)
MDA-MB-435
  GI50: > 100 µM (inactive)
MCF7
  GI50: > 100 µM (inactive)
ACHN
  GI50: > 100 µM (inactive)
Hs-578T
  GI50: > 100 µM (inactive)
SF-295
  GI50: > 100 µM (inactive)
SK-OV-3
  GI50: > 100 µM (inactive)
OVCAR-4
  GI50: > 100 µM (inactive)
A498
  GI50: > 100 µM (inactive)
NCI/ADR-RES
  GI50: > 100 µM (inactive)
HCT-116
  GI50: > 100 µM (inactive)
TK-10
  GI50: > 100 µM (inactive)
SW-620
  GI50: > 100 µM (inactive)
M14
  GI50: > 100 µM (inactive)
786-0
  GI50: > 100 µM (inactive)
IGROV-1
  GI50: > 100 µM (inactive)
NCI-H522
  GI50: > 100 µM (inactive)
LOX IMVI
  GI50: > 100 µM (inactive)
PC-3
  GI50: > 100 µM (inactive)

## Nc1nc(Cl)cc(NCC2(CO)COC2)n1
NCI-H23
  GI50: > 100 µM (inactive)
BT-549
  GI50: > 100 µM (inactive)
CAKI-1
  GI50: > 100 µM (inactive)
NCI-H460
  GI50: > 100 µM (inactive)
MOLT-4
  GI50: > 10 µM (inactive)
OVCAR-8
  GI50: > 100 µM (inactive)
KM12
  GI50: > 100 µM (inactive)
COLO 205
  GI50: > 100 µM (inactive)
A549
  GI50: > 100 µM (inactive)
U-251
  GI50: > 100 µM (inactive)
NCI-H226
  GI50: > 100 µM (inactive)
DU-145
  GI50: > 100 µM (inactive)
MDA-MB-231
  GI50: > 100 µM (inactive)
HCT-15
  GI50: > 100 µM
HOP-92
  GI50: > 10 µM (inactive)
SF-539
  GI50: > 100 µM (inactive)
HOP-62
  GI50: > 100 µM (inactive)
SN12C
  GI50: > 100 µM (inactive)
Malme-3M
  GI50: > 100 µM (inactive)
K562
  GI50: > 100 µM (inactive)
RPMI-8226
  GI50: > 100 µM (inactive)
CCRF-CEM
  GI50: > 100 µM (inactive)
SNB-75
  GI50: > 100 µM (inactive)
RXF 393
  GI50: > 100 µM (inactive)
SK-MEL-2
  GI50: > 100 µM (inactive)
HT-29
  GI50: > 100 µM (inactive)
UACC-257
  GI50: > 100 µM (inactive)
UACC-62
  GI50: > 100 µM (inactive)
SK-MEL-28
  GI50: > 100 µM (inactive)
MDA-N
  GI50: > 100 µM (inactive)
T47D
  GI50: 53.8 µM (inactive)
EKVX
  GI50: > 100 µM (inactive)
OVCAR-5
  GI50: > 100 µM (inactive)
SR
  GI50: > 100 µM (inactive)
SK-MEL-5
  GI50: > 100 µM (inactive)
UO-31
  GI50: > 100 µM (inactive)
OVCAR-3
  GI50: > 100 µM (inactive)
HCC 2998
  GI50: > 100 µM (inactive)
SF-268
  GI50: > 100 µM (inactive)
HL-60
  GI50: > 100 µM (inactive)
MDA-MB-435
  GI50: > 100 µM (inactive)
MCF7
  GI50: > 100 µM (inactive)
ACHN
  GI50: > 100 µM (inactive)
Hs-578T
  GI50: > 100 µM (inactive)
SF-295
  GI50: > 100 µM (inactive)
SK-OV-3
  GI50: > 100 µM (inactive)
OVCAR-4
  GI50: > 100 µM (inactive)
A498
  GI50: > 100 µM (inactive)
NCI/ADR-RES
  GI50: > 100 µM (inactive)
HCT-116
  GI50: > 100 µM (inactive)
TK-10
  GI50: > 100 µM (inactive)
SW-620
  GI50: > 100 µM (inactive)
786-0
  GI50: > 100 µM (inactive)
IGROV-1
  GI50: > 100 µM (inactive)
NCI-H522
  GI50: > 100 µM (inactive)
LOX IMVI
  GI50: > 100 µM (inactive)
PC-3
  GI50: > 100 µM (inactive)
